As a reminder, the pEC50 is the EC50 on a negative log10 scale, so that one unit is a factor of ten.

SMILES strings stand for the structures. pEC50: −log10 of the molar value.

The text below walks through data of patent publication US20250243171A1, “QUINAZOLINE COMPOUNDS FOR TREATMENT OF DISEASE” (Arthrosi Therapeutics, Inc., priority 2021, published 2025).

What all share (assay): EC50 assay: Ba/F3 stable cell proliferation (CCK-8, 72 h)
What all share (format): cell-based

Experiment [1] concerns the target T1, Ba/F3 stable cells (Homo sapiens, UniProt P00533, DUP767-769, cells depend on it).
T1 construct: EC50 Ba/F3-EGFR V769-D770insASV; other: Ba/F3-EGFR V769-D770insASV cells, 72 h, CCK-8
To be noted: Ba/F3-EGFR V769-D770insASV cells. The essentials:
(§1)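 Ba/F3 stable cells were seeded at 4,000 cells/90 μL/well in 96-well plates and held 2 h at 37° C. in 5% CO2, then given 10 μL of serially titrated compound (0.1% DMSO final). After 72 h at 37° C., CCK-8 reagent was added for 4 hours and absorbance read at 450 nm to derive EC50.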

The target in experiment [2] is T2, Ba/F3 stable cells (Homo sapiens, UniProt P00533, DUP768-770, cells depend on it).
T2 construct: EC50 Ba/F3-EGFR D770-N771insSVD; other: Ba/F3-EGFR D770-N771insSVD cells, 72 h, CCK-8
The conditions noted are these: Ba/F3-EGFR D770-N771insSVD cells. In short, it runs like this:
as §1

Experiment [3] deals with T3, Ba/F3 stable cells (Homo sapiens, UniProt P00533, DUP771-773, cells depend on it).
T3 construct: EC50 Ba/F3-EGFR H773-V774insNPH; other: Ba/F3-EGFR H773-V774insNPH cells, 72 h, CCK-8
T3 sequence (P00533 with tags, fused parts or gaps DUP771-773): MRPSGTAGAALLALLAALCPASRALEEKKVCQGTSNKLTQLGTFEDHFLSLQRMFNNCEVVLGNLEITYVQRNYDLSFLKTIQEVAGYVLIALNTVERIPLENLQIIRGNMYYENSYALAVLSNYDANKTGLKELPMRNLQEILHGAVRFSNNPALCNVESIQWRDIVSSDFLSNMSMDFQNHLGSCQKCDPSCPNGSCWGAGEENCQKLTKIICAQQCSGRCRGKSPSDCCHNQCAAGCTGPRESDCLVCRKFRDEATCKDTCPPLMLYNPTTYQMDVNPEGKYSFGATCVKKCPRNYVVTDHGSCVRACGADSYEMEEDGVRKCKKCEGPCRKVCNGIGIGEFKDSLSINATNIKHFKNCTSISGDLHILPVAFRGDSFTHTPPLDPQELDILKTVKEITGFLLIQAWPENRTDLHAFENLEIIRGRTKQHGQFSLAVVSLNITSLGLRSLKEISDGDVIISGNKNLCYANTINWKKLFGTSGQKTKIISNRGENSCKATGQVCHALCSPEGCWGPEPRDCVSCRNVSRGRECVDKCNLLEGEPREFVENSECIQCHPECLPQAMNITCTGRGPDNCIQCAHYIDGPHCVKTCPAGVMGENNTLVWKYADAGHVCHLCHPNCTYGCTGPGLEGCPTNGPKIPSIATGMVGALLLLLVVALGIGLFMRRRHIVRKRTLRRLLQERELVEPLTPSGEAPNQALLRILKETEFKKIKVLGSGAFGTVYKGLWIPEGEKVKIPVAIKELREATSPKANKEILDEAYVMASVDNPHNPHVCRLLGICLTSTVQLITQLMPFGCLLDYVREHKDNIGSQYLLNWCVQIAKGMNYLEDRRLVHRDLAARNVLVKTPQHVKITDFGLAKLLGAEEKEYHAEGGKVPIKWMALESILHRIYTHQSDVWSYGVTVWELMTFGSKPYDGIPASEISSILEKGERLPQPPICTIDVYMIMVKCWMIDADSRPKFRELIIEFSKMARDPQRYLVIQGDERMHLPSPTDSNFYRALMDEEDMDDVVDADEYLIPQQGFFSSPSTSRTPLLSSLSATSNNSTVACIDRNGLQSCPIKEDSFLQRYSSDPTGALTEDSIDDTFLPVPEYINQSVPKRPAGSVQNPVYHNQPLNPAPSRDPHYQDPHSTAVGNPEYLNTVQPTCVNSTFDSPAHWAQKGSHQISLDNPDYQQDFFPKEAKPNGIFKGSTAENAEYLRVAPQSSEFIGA
To be noted: Ba/F3-EGFR H773-V774insNPH cells. In short, it runs like this:
as §1

Experiment [4] addresses T4, Ba/F3 stable cells (Homo sapiens, UniProt P00533, INS763FQEA, cells depend on it).
T4 construct: EC50 Ba/F3-EGFR A763-Y764insFQEA; other: Ba/F3-EGFR A763-Y764insFQEA cells, 72 h, CCK-8
The conditions noted are these: Ba/F3-EGFR A763-Y764insFQEA cells. In short, it runs like this:
as §1

Experiment [5] addresses T5, Ba/F3 stable cells (Homo sapiens, UniProt P00533, T790M/L858R, cells depend on it).
T5 construct: EC50 Ba/F3-EGFR L858R-T790M; other: Ba/F3-EGFR L858R-T790M cells, 72 h, CCK-8
The conditions noted are these: Ba/F3-EGFR L858R-T790M cells. In short, it runs like this:
as §1

For experiment [6], the target named is T6, Ba/F3 stable cells (Homo sapiens, UniProt P04626, DUP772-775, cells depend on it).
T6 construct: EC50 Ba/F3-HER2 A775-G776insYVMA; other: Ba/F3-HER2 A775-G776insYVMA cells, 72 h, CCK-8
T6 sequence (P04626 with tags, fused parts or gaps DUP772-775): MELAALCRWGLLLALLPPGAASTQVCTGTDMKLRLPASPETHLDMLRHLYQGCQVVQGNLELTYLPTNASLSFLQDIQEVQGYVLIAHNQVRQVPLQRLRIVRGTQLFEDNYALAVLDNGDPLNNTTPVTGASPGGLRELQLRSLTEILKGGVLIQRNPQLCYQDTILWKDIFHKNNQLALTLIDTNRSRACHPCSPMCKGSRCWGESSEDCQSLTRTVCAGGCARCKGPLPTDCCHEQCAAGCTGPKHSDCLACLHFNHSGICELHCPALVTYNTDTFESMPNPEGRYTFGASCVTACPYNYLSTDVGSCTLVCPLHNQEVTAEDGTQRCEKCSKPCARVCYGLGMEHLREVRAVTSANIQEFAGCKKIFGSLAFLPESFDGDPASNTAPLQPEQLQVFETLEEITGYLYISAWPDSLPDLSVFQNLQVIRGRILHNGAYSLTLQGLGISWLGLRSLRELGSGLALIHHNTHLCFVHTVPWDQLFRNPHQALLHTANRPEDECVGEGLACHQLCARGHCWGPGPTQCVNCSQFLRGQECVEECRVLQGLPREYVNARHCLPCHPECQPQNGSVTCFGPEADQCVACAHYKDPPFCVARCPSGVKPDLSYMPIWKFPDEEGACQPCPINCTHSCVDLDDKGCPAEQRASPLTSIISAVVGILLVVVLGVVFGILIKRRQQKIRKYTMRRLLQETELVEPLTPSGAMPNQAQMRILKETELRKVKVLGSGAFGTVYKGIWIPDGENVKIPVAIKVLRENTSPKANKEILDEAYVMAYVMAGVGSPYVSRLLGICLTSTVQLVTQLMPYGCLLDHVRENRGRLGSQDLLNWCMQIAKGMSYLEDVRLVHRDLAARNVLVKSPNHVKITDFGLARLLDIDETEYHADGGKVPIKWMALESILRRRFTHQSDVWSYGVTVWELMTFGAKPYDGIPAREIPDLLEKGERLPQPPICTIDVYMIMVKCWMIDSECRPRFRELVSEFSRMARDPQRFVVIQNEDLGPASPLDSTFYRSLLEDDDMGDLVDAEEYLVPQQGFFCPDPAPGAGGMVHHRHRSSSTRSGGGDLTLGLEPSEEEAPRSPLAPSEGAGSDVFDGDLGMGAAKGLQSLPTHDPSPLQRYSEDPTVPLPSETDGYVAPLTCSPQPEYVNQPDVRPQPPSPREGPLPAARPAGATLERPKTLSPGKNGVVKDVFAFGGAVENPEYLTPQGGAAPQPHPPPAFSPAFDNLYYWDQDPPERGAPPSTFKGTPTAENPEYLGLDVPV
The conditions noted are these: Ba/F3-HER2 A775-G776insYVMA cells. In short, it runs like this:
as §1

T5 sequence (P00533 whole entry T790M/L858R): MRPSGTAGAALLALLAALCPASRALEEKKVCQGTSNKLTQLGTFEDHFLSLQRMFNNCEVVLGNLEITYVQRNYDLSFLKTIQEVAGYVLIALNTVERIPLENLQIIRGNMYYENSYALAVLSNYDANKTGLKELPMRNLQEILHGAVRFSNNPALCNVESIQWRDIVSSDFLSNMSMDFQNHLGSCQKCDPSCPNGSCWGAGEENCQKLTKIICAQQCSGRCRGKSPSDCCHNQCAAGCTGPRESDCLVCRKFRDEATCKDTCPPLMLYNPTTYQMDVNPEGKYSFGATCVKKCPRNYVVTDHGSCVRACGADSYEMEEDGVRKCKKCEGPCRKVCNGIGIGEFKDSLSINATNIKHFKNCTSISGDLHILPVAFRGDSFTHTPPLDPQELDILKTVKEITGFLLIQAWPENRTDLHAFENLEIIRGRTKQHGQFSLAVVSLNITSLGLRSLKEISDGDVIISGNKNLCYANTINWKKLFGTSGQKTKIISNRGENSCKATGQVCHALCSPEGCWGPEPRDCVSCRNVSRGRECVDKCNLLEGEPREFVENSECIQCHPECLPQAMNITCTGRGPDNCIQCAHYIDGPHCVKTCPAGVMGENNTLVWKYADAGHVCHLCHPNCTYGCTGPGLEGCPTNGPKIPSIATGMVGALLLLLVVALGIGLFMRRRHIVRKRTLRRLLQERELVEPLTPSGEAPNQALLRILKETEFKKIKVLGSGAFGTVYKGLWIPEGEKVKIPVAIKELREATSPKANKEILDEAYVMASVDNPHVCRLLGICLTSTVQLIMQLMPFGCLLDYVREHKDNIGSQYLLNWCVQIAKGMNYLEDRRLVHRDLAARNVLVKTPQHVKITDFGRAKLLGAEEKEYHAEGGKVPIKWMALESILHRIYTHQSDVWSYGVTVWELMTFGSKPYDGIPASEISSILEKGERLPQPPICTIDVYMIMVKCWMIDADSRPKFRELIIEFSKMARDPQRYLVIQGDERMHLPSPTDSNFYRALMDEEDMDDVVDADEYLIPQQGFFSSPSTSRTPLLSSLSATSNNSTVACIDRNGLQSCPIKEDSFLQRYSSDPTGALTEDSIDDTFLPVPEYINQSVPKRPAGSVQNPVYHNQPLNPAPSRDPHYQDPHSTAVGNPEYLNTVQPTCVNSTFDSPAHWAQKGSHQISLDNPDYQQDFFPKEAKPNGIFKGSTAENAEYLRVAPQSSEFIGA
T1 sequence (P00533 with tags, fused parts or gaps DUP767-769): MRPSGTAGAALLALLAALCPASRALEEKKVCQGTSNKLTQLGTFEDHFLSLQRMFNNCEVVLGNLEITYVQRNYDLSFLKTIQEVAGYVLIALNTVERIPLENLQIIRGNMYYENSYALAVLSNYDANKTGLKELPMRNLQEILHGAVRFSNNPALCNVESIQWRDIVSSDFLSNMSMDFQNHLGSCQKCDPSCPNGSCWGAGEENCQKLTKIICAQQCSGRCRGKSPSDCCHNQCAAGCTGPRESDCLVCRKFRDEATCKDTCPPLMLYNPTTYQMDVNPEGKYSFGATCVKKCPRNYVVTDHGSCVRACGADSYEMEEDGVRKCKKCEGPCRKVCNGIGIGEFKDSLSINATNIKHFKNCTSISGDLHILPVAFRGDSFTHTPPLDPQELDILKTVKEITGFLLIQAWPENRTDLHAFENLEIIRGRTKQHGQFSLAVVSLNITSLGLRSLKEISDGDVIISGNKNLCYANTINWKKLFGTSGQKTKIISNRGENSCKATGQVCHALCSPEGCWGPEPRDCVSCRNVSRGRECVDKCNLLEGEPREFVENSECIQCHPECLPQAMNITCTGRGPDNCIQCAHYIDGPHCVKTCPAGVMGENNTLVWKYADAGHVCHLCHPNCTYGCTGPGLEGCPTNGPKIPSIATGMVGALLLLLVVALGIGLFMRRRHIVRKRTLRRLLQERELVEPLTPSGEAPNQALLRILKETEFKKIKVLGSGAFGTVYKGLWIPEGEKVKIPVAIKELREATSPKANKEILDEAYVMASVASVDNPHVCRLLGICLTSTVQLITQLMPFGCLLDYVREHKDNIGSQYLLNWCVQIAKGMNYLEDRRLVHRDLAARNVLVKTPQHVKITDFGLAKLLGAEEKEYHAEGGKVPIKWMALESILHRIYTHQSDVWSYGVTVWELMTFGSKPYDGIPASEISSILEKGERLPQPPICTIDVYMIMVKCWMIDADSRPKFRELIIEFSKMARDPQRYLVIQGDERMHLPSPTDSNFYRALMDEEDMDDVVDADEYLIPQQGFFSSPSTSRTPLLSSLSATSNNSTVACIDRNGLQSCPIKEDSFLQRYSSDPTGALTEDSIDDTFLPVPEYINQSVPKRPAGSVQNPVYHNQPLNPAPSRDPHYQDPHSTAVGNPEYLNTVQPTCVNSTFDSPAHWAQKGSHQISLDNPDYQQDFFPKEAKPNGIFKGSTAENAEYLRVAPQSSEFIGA

For the molecule `COc1cc2ncnc(Nc3ccc(Cl)c(Cl)c3F)c2cc1OC1CC(NC(=O)/C=C/CN(C)C)C1` (stereo not drawn) [Compound 42, (E)-N-(3-((4-((3,4-dichloro-2-fluorophenyl)amino)-7-methoxyquinazolin-6-yl)oxy)cyclobutyl)-4-(dimethylamino)but-2-enamide], the pEC50 is not below 6.70 at Ba/F3 stable cells [1]; 6.00 to 6.70 on Ba/F3 stable cells [2]; 6.00 to 6.70 on Ba/F3 stable cells [3]; not below 6.70 on Ba/F3 stable cells [4]; less than 6.00 at Ba/F3 stable cells [5]; 6.00 to 6.70 on Ba/F3 stable cells [6].

For the molecule `CC#CC(=O)NC1CC(Oc2cc3c(Nc4ccc(Cl)c(Cl)c4F)ncnc3cc2OC)C1` (stereo not drawn) [Compound 43, N-(3-((4-((3,4-dichloro-2-fluorophenyl)amino)-7-methoxyquinazolin-6-yl)oxy)cyclobutyl)but-2-ynamide], the pEC50 on Ba/F3 stable cells [1] was 6.00 to 6.70; on Ba/F3 stable cells [2], 6.00 to 6.70; at Ba/F3 stable cells [3], less than 6.00; at Ba/F3 stable cells [4], not below 6.70; on Ba/F3 stable cells [5], less than 6.00; at Ba/F3 stable cells [6] it was 6.00 to 6.70.

Regarding `C#CC(=O)N[C@H]1C[C@H](Oc2cc3c(Nc4cccc5c4CCC5)ncnc3cc2OC)C1` [Compound 44, N-((1r,3r)-3-((4-((2,3-dihydro-1H-inden-4-yl)amino)-7-methoxyquinazolin-6-yl)oxy)cyclobutyl)propiolamide], the pEC50 is not below 6.70 on Ba/F3 stable cells [1]; 6.00 to 6.70 at Ba/F3 stable cells [2]; not below 6.70 at Ba/F3 stable cells [3]; not below 6.70 at Ba/F3 stable cells [4]; 6.00 to 6.70 at Ba/F3 stable cells [5]; 6.00 to 6.70 at Ba/F3 stable cells [6].

For `C#CC(=O)N[C@H]1C[C@@H](Oc2cc3c(Nc4cccc5c4CCC5)ncnc3cc2OC)C1` [Compound 45, N-((1s,3s)-3-((4-((2,3-dihydro-1H-inden-4-yl)amino)-7-methoxyquinazolin-6-yl)oxy)cyclobutyl)propiolamide], the pEC50 at Ba/F3 stable cells [1] was less than 6.00; on Ba/F3 stable cells [2], less than 6.00; on Ba/F3 stable cells [3], less than 6.00; at Ba/F3 stable cells [4], not below 6.70; on Ba/F3 stable cells [5], less than 6.00; on Ba/F3 stable cells [6], less than 6.00.

Consider `C#CC(=O)NC1CC(Oc2cc3c(Nc4cccc5ccccc45)ncnc3cc2OC)C1` (stereo not drawn) [Compound 46, N-(3-((7-methoxy-4-(naphthalen-1-ylamino)quinazolin-6-yl)oxy)cyclobutyl)propiolamide], for which the pEC50 is not below 6.70 at Ba/F3 stable cells [1]; 6.00 to 6.70 at Ba/F3 stable cells [2]; not below 6.70 at Ba/F3 stable cells [3]; not below 6.70 at Ba/F3 stable cells [4]; not below 6.70 on Ba/F3 stable cells [5]; not below 6.70 on Ba/F3 stable cells [6].

For the molecule `C#CC(=O)N[C@H]1C[C@@H](Oc2cc3c(Nc4cccc5ccccc45)ncnc3cc2OC)C1` [Compound 47, N-((1s,3s)-3-((7-methoxy-4-(naphthalen-1-ylamino)quinazolin-6-yl)oxy)cyclobutyl)propiolamide], the pEC50 was not below 6.70 on Ba/F3 stable cells [1]; not below 6.70 at Ba/F3 stable cells [2]; not below 6.70 at Ba/F3 stable cells [3]; not below 6.70 at Ba/F3 stable cells [4]; not below 6.70 on Ba/F3 stable cells [5]; 6.00 to 6.70 on Ba/F3 stable cells [6].

With `C#CC(=O)N[C@H]1C[C@H](Oc2cc3c(Nc4ccc5ccccc5c4)ncnc3cc2OC)C1` [Compound 48, N-((1r,3r)-3-((7-methoxy-4-(naphthalen-2-ylamino)quinazolin-6-yl)oxy)cyclobutyl)propiolamide], the pEC50 on Ba/F3 stable cells [1] was not below 6.70; at Ba/F3 stable cells [2] it was 6.00 to 6.70; at Ba/F3 stable cells [3], 6.00 to 6.70; on Ba/F3 stable cells [4], not below 6.70; at Ba/F3 stable cells [5], not below 6.70; on Ba/F3 stable cells [6], 6.00 to 6.70.

Consider `C#CC(=O)NC1CC(Oc2cc3c(Nc4ccc(Cl)c(Cl)c4F)ncnc3cc2OC)C1` (stereo not drawn) [Compound 49, N-(3-((4-((3,4-dichloro-2-fluorophenyl)amino)-7-methoxyquinazolin-6-yl)oxy)cyclobutyl)propiolamide], for which the pEC50 on Ba/F3 stable cells [1] was not below 6.70; on Ba/F3 stable cells [2], not below 6.70; at Ba/F3 stable cells [3] it was not below 6.70; at Ba/F3 stable cells [4], not below 6.70; on Ba/F3 stable cells [5], not below 6.70; at Ba/F3 stable cells [6], 6.00 to 6.70.
